Residues, ends and D or L forms follow the SMILES beside them. No end group written: not given here. *: point of attachment. AMC = Cc1cc(=O)oc2cc(N*)ccc12
Tests used:
Format in all cases: biochemical
[1] = target: T1, dipeptidyl peptidase I (DPPI) (Homo sapiens, UniProt P53634); assay: DPPI assay with label-free 20-mer peptide substrate, mass spectrometry (RapidFire, SIM), screening of test compounds; settings: for IC50: 20-mer peptide substrate (SEQ ID NO:1) 20 μM, about 2 nM DPPI, 27° C., 60 min, semi-log plot analysis, read-out: IC50 of DPPI inhibition; for effect on DPPI activity in the reaction with the 20-mer substrate: 20-mer peptide substrate, mass spectrometry
T1 construct: made in house; host or cells: Hi5 insect cells (baculovirus)
Experimental: (§1) FIG. 2. Evaluating the DPPI-modulating activity with two test compounds using a dipeptide substrate (A) and using a 20-mer peptide substrate (B). (A) About 0.4 nM of DPP1 and about 10 μM of dipeptide substrate GR-α-methylcoumarin were used in a rate-based format and monitored with fluorescence at EM=460 nm and EX=380 nm. (B) About 2 nM of DPPI and 20 μM of the 20-mer peptide substrate […] (SEQ ID NO:1) were used in a reaction and monitored with a mass spectrometry system. 2-(piperidin-1-ylcarbonyl)phenol is represented by solid squares and 2-(piperidin-1-ylcarbonyl)aniline is represented by solid circles. R^2-values is >0.95.
When a candidate compound is identified, the IC50 of the DPPI inhibition by the candidate compound is calculated using the formula (II):
[formula] wherein • Si is net substrate turnover signal of sample • So is net substrate turnover signal of positive control • Smin is net am signal of negative control • I is concentration of a candidate compound wherein a positive control is a reaction without any test compound and a negative control is a reaction without DPPI or substrate.
About 2 nM of DPPI was incubated with about 0.5, 1, 2, 4, 8, 16, 32, 64, 90, 128, 150 μM of the 20-mer substrate in the reaction buffer of 50 mM HEPES (pH 7.0), 100 mM NaCl, 0.005% Tween-20, and 2 mM of DTT or GSH. The reaction was incubated at about 27° C. and terminated with about 1/10 volume of 2% trifluoroacetic acid at multiple time points at 0, 2, 5, 10, 20, 30, 45, 60, 75, 90, and 120 mins. An aliquot of about 10 μl of the quenched reaction was used for detecting the substrate turnover by RapidFire (BioTrove, Woburn, Mass.) with a C4 cartridge. The reaction was loaded onto the cartridge, which was equilibrated with the stationary phase of 0.1% formic acid+0.02% TFA and developed with the mobile phase of 90% MeCN+0.1% formic acid+0.02% TFA at about 1 ml per min. The 20-mer substrate at SIM 1112 amu (atomic mass unit) and the corresponding 18-mer product at SIM 1019 were monitored using Agilent 1100 series LCMSD (Santa Clara, Calif.) in the positive ion mode monitoring.
Two fragment compounds, 2-(piperidin-1-ylcarbonyl)phenol and 2-(piperidin-1-ylcarbonyl)aniline were evaluated for their activity to modulate DPPI. A dilution series of the compounds of about 0.1 mM to about 100 mM was made in 100% DMSO. About one μl of a test compound and about 8 μl of about 3.75 nM DDP-1 were added to a 384-well polypropylene plate (Greiner Bio-One North America Inc., Monroe, N.C.). The proteolytic reaction was initiated by the addition of about 1 μl of 200 μM substrate. […] An aliquot of about 10 μl of the quenched reaction was analyzed by RapidFire™ as described in Examples 3 and 4.

[2] = target: T1, dipeptidyl peptidase I (DPPI); assay: Rate-based DPPI assay with dipeptide substrate GR-alpha-methylcoumarin, fluorescence, test compounds; settings: dipeptide substrate GR-α-methylcoumarin about 10 μM, about 0.4 nM DPPI, compound up to 10 mM
Experimental: as §1
The DPPI activity was analyzed with either the dipeptide substrate, Gly-Arg, labeled with alpha-methylcoumarin (AMC), or the 20-mer peptide substrate of SEQ ID NO: 1. […] The fluorescence (Ex=380 nm, EM=460 nm) was monitored continuously from about 0 to 10 mins, using a Safire II (Tecan, Switzerland) to determine the DPPI activity. […]
Two fragment compounds, 2-(piperidin-1-ylcarbonyl)phenol and 2-(piperidin-1-ylcarbonyl)aniline were evaluated for their activity to modulate DPPI. […] An aliquot of about 10 μl of the quenched reaction was analyzed by RapidFire™ as described in Examples 3 and 4.

[3] = target: T1, dipeptidyl peptidase I (DPPI); assay: Initial velocity analysis of DPPI with the dipeptide substrate Gly-Arg-AMC, fluorescence; settings: dipeptide GR-AMC as DPPI substrate, about 0.4 nM DPPI, pH 7.0
Experimental: (§2) FIG. 1. Initial velocity analysis for DPP1 kinetic constant in reaction with a 20-mer substrate (A) and a dipeptide substrate (B). (A) About 2 nM of DPPI was used in the reaction with the 20-mer substrate of […] (SEQ ID NO:1) and the reaction was monitored using a mass spectrometry system. (B) About 0.4 nM of DPP1 was used in the reaction with the dipeptide substrate of GR-α-methylcoumarin and the reaction was monitored using a rate-based format monitoring fluorescence at EM=460 nm and EX=380 nm. Initial rates are taken from kinetic data where less than 7% substrate turnover was achieved.
(§3) Once the rate of the substrate turnover under the initial velocity condition, the kinetic constants for DPPI and the peptide substrate are calculated using the following formula (I): Y=VMAX((X+Et+KM)−((((Et+X+KM)^2)−(4XEt))^0.5))/(2Et) wherein • Y is concentration of substrate turnover • X is substrate concentration • Et is DPPI concentration • KM is substrate concentration at ½ VMAX • VMAX is substrate turnover at substrate saturation
The DPPI activity was analyzed with either the dipeptide substrate, Gly-Arg, labeled with alpha-methylcoumarin (AMC), or the 20-mer peptide substrate of SEQ ID NO: 1. For the dipeptide substrate, about 0.4 nM of DPPI was incubated with about 1, 2, 5, 10, 25, 50, 100, 150, 300, 600 μM of the dipeptide substrate in 10 ul of reaction buffer of 50 mM Hepes (pH 7.0), 100 mM NaCl, 0.005% Tween-20, and 2 mM of DTT or GSH. The fluorescence (Ex=380 nm, EM=460 nm) was monitored continuously from about 0 to 10 mins, using a Safire II (Tecan, Switzerland) to determine the DPPI activity. The condition for the 20-mer peptide substrate was the same as described above.

[4] = target: T1, dipeptidyl peptidase I (DPPI); assay: Initial velocity analysis of DPPI with the 20-mer substrate, mass spectrometry; settings: 20-mer as DPPI substrate, about 2 nM DPPI, pH 7.0, about 27° C.
Experimental: as §2, §3
About 2 nM of DPPI was incubated with about 0.5, 1, 2, 4, 8, 16, 32, 64, 90, 128, 150 μM of the 20-mer substrate in the reaction buffer of 50 mM HEPES (pH 7.0), 100 mM NaCl, 0.005% Tween-20, and 2 mM of DTT or GSH. […]

T1 sequence (P53634 25-134 limits assumed, species assumed): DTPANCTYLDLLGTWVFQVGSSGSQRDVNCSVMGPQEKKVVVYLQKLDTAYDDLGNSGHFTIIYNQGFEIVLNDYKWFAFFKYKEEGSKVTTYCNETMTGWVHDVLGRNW
T1 sequence (P53634 231-394 limits assumed, species assumed): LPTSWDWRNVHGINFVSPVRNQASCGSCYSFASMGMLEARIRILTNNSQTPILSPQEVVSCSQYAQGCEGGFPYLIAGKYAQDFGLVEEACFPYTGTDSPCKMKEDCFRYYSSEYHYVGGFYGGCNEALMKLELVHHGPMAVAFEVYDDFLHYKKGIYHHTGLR
T1 sequence (P53634 395-463 limits assumed, species assumed): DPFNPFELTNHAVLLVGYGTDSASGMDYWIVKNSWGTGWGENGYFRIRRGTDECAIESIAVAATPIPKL

IC50 [1] [µM]	Km [4] [µM]	Compound	effect on DPPI activity in the reaction with the 20-mer substrate [1]	effect on DPPI activity in the reaction with the dipeptide substrate [2]	2nd order rate constant [3] [M⁻¹ s⁻¹]	Km [3] [µM]	kcat [3] [Mmin^−1]
~1000	–	Nc1ccccc1C(=O)N1CCCCC1 [2-(piperidin-1-ylcarbonyl)aniline]	modulated the DPPI activity in a concentration dependent manner	neither compound, even in high concentration of 10 mM, affected the DPPI activity	–	–	–
~100	–	O=C(c1ccccc1O)N1CCCCC1 [2-(piperidin-1-ylcarbonyl)phenol]	modulated the DPPI activity in a concentration dependent manner	neither compound, even in high concentration of 10 mM, affected the DPPI activity	–	–	–
–	–	Cc1cc(=O)oc2cc(NC(=O)[C@H](CCCNC(=N)N)NC(=O)CN)ccc12 [Dipeptide, Gly-Arg, labeled with alpha-methylcoumarin (AMC)] (H-Gly-Arg-{AMC})	–	–	1.48e+06	64	5667
–	62	GEIIGGTECKPHSRPYMAYL [20-mer]	–	–	–	–	–
